Reference: patent US6809065B2, “Herbicide containing substituted pyrazole derivative as active ingredient” (SDS Biotech K.K., priority 2001, dated 2004)

What was measured:
Ammannia multiflora = assay: Paddy field treatment (Test Example 3); format: in vivo; details: paddy pot, submerged 4 cm, dropped on water surface 10th day after transplantation, 1 kg active ingredient per hectare, evaluated 21st day
Method in brief: (§1)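 Pot test, flooded paddy soil (4 cm water); weeds sown, 2-leaf rice (Koshihikari) transplanted. Day 10 post-transplant: WP dropped on water, 1 kg a.i./ha. Score index at 21 d after application; higher = stronger herbicidal effect.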

Monochoria vaginalis = assay: Paddy field treatment (Test Example 3); format: in vivo; details: paddy pot, submerged 4 cm, dropped on water surface 10th day after transplantation, 1 kg active ingredient per hectare, evaluated 21st day
Method in brief: as §1

Scirpus juncoides = assay: Paddy field treatment (Test Example 3); format: in vivo; details: paddy pot, submerged 4 cm, dropped on water surface 10th day after transplantation, 1 kg active ingredient per hectare, evaluated 21st day
Method in brief: as §1

Echinochloa spp. = assay: Paddy field treatment (Test Example 3); format: in vivo, Echinochloa crusgalli; details: paddy pot, submerged 4 cm, dropped on water surface 10th day after transplantation, 1 kg active ingredient per hectare, evaluated 21st day
Method in brief: as §1

[1] = test system: rice (Oryza sative, variety: Koshihikari); assay: Paddy field treatment (Test Example 3), crop; format: in vivo, Oryza sativa; details: transplanted rice two-leaf period, water surface treatment 10th day after transplantation, 1 kg active ingredient per hectare, evaluated 21st day, lower index = higher safety
Method in brief: as §1

soybean (Glycine max) [2] = assay: Upland soil treatment (Test Example 2), crop; format: in vivo; details: soil surface treatment next day after sowing, 1 kg active ingredient per hectare, evaluated 21st day, lower index = higher safety
Method in brief: (§2)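 Index rating at day 21 after a single pre-emergence soil-surface application, 1 kg a.i./ha, made the day after sowing in upland soil; for crops a lower index indicates higher safety.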

[3] = test system: wheat (Triticum aestivum); assay: Upland soil treatment (Test Example 2), crop; format: in vivo; details: soil surface treatment next day after sowing, 1 kg active ingredient per hectare, evaluated 21st day, lower index = higher safety
Method in brief: as §2

soybean (Glycine max) [4] = assay: Upland field foliage treatment (Test Example 1), crop; format: in vivo; details: foliage treatment 14th day after sowing, 1 kg active ingredient per hectare, evaluated 21st day, lower index = higher safety
Method in brief: (§3)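 Read-out is a visual index scored 21 days after treatment. Higher values mean more herbicidal effect on weeds and lower values mean better crop safety. Plants were raised from seed in upland soil and received a leaf-surface spray of 1 kg active ingredient per hectare at 14 days.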

[5] = test system: wheat (Triticum aestivum); assay: as above; format: in vivo; details: foliage treatment 14th day after sowing, 1 kg active ingredient per hectare, evaluated 21st day, lower index = higher safety
Method in brief: as §3

Digitaria adscendens [6] = assay: Upland soil treatment (Test Example 2); format: in vivo; details: soil surface treatment next day after sowing, wettable powder, 1 kg active ingredient per hectare, evaluated 21st day after application
Method in brief: as §2

Stellaria media [7] = assay: Upland soil treatment (Test Example 2); format: in vivo; details: soil surface treatment next day after sowing, wettable powder, 1 kg active ingredient per hectare, evaluated 21st day after application
Method in brief: as §2

Chenopodium album [8] = assay: Upland soil treatment (Test Example 2); format: in vivo; details: soil surface treatment next day after sowing, wettable powder, 1 kg active ingredient per hectare, evaluated 21st day after application
Method in brief: as §2

Setaria viridis [9] = assay: Upland soil treatment (Test Example 2); format: in vivo; details: soil surface treatment next day after sowing, wettable powder, 1 kg active ingredient per hectare, evaluated 21st day after application
Method in brief: as §2

Digitaria adscendens [10] = assay: Upland field foliage treatment (Test Example 1); format: in vivo; details: foliage treatment 14th day after sowing, wettable powder, 1 kg active ingredient per hectare, evaluated 21st day after application
Method in brief: as §3

Stellaria media [11] = assay: Upland field foliage treatment (Test Example 1); format: in vivo; details: foliage treatment 14th day after sowing, wettable powder, 1 kg active ingredient per hectare, evaluated 21st day after application
Method in brief: as §3

Chenopodium album [12] = assay: Upland field foliage treatment (Test Example 1); format: in vivo; details: foliage treatment 14th day after sowing, wettable powder, 1 kg active ingredient per hectare, evaluated 21st day after application
Method in brief: as §3

Setaria viridis [13] = assay: Upland field foliage treatment (Test Example 1); format: in vivo; details: foliage treatment 14th day after sowing, wettable powder, 1 kg active ingredient per hectare, evaluated 21st day after application
Method in brief: as §3

SMILES	Herbicidal activity Ammannia multiflora (Ammannia multiflora)	Herbicidal activity Monochoria vaginalis (Monochoria vaginalis)	Herbicidal activity Scirpus juncoides (Scirpus juncoides)	Herbicidal activity Echinochloa spp. (Echinochloa spp.)	Herbicidal activity Oryza sativa [1]	Herbicidal activity Glycine max (soybean (Glycine max) [2])	Herbicidal activity Triticum aestivum [3]	Herbicidal activity Glycine max (soybean (Glycine max) [4])	Herbicidal activity Triticum aestivum [5]	Herbicidal activity Digitaria adscendens (Digitaria adscendens [6])	Herbicidal activity Stellaria media (Stellaria media [7])	Herbicidal activity Chenopodium album (Chenopodium album [8])	Herbicidal activity Setaria viridis (Setaria viridis [9])	Herbicidal activity Digitaria adscendens (Digitaria adscendens [10])	Herbicidal activity Stellaria media (Stellaria media [11])	Herbicidal activity Chenopodium album (Chenopodium album [12])	Herbicidal activity Setaria viridis (Setaria viridis [13])
COC=C(Cn1nc(-c2cc(C)ccc2C)c(Cl)c1C)C(=O)OC [Compound 19]	5 (herbicidal effect of not less than 90% by weight)	5 (herbicidal effect of not less than 90% by weight)	5 (herbicidal effect of not less than 90% by weight)	5 (herbicidal effect of not less than 90% by weight)	1 (herbicidal effect of not less than 10% by weight and less than 30% by weight)	0 (herbicidal effect of not less than 0% by weight and less than 10% by weight)	0 (herbicidal effect of not less than 0% by weight and less than 10% by weight)	0 (herbicidal effect of not less than 0% by weight and less than 10% by weight)	0 (herbicidal effect of not less than 0% by weight and less than 10% by weight)	5 (herbicidal effect of not less than 90% by weight)	5 (herbicidal effect of not less than 90% by weight)	4 (herbicidal effect of not less than 70% by weight and less than 90% by weight)	4 (herbicidal effect of not less than 70% by weight and less than 90% by weight)	5 (herbicidal effect of not less than 90% by weight)	4 (herbicidal effect of not less than 70% by weight and less than 90% by weight)	5 (herbicidal effect of not less than 90% by weight)	4 (herbicidal effect of not less than 70% by weight and less than 90% by weight)
COC=C(Cn1nc(-c2cccc(Cl)c2Cl)c(Cl)c1C)C(=O)OC [Compound 20]	5 (herbicidal effect of not less than 90% by weight)	5 (herbicidal effect of not less than 90% by weight)	4 (herbicidal effect of not less than 70% by weight and less than 90% by weight)	4 (herbicidal effect of not less than 70% by weight and less than 90% by weight)	0 (herbicidal effect of not less than 0% by weight and less than 10% by weight)	0 (herbicidal effect of not less than 0% by weight and less than 10% by weight)	0 (herbicidal effect of not less than 0% by weight and less than 10% by weight)	0 (herbicidal effect of not less than 0% by weight and less than 10% by weight)	0 (herbicidal effect of not less than 0% by weight and less than 10% by weight)	4 (herbicidal effect of not less than 70% by weight and less than 90% by weight)	4 (herbicidal effect of not less than 70% by weight and less than 90% by weight)	5 (herbicidal effect of not less than 90% by weight)	4 (herbicidal effect of not less than 70% by weight and less than 90% by weight)	4 (herbicidal effect of not less than 70% by weight and less than 90% by weight)	5 (herbicidal effect of not less than 90% by weight)	5 (herbicidal effect of not less than 90% by weight)	4 (herbicidal effect of not less than 70% by weight and less than 90% by weight)
COC=C(Cn1nc(-c2ccc(Cl)cc2Cl)c(Cl)c1C)C(=O)OC [Compound 21]	5 (herbicidal effect of not less than 90% by weight)	5 (herbicidal effect of not less than 90% by weight)	4 (herbicidal effect of not less than 70% by weight and less than 90% by weight)	5 (herbicidal effect of not less than 90% by weight)	0 (herbicidal effect of not less than 0% by weight and less than 10% by weight)	0 (herbicidal effect of not less than 0% by weight and less than 10% by weight)	0 (herbicidal effect of not less than 0% by weight and less than 10% by weight)	1 (herbicidal effect of not less than 10% by weight and less than 30% by weight)	0 (herbicidal effect of not less than 0% by weight and less than 10% by weight)	4 (herbicidal effect of not less than 70% by weight and less than 90% by weight)	4 (herbicidal effect of not less than 70% by weight and less than 90% by weight)	4 (herbicidal effect of not less than 70% by weight and less than 90% by weight)	4 (herbicidal effect of not less than 70% by weight and less than 90% by weight)	5 (herbicidal effect of not less than 90% by weight)	5 (herbicidal effect of not less than 90% by weight)	5 (herbicidal effect of not less than 90% by weight)	4 (herbicidal effect of not less than 70% by weight and less than 90% by weight)
